Experiment [1] deals with A375 melanoma cells. Briefly: cell vitality FACS analysis (region R-1, FSC/SSC), A375 melanoma cells. The class given is cell-based, human. The settings on record: A375, Protocol A, about 24 hours, FIG. 7; for decrease of cell vitality, comparison in words: any concentration (100, 200, 500 μM). Here is the method:
(§1) To transfer adherent cells (A375 and BxPC-3 cells) after culture, cells are washed twice with PBS. To detach the cells, the enzyme biotase is used according to the manufacturer's instructions. For this purpose, after washing with PBS, the cells are mixed with biotase (5 ml of biotase solution per 75 cm^2 surface of the cell culture bottles) and incubated for 5 min at 37 degrees Celsius, and the biotase is separated by centrifugation. Cells cultivated in suspension (MEC-1 and lymphocytes) were transferred by dilution. The cells are suspended in culture medium and counted, each time 1.5×10^5 cells/cm^2 are seeded in 48-well plates and cultured for between 1.5 and 24 hours at 37 degrees Celsius, 5% CO2. Peptides are pre-diluted from stock solution with culture medium and 200 μl of peptide solution added so that final concentrations of 30 to 500 μM peptide are present in at most 1% (v/v) DMSO. As control solutions, culture medium without peptide (DMSO-containing) in culture medium or etoposide solution is added. After incubating the cells for several hours, the cell supernatant is transferred to a FACS tube for each batch and, after washing the cells with PBS, the wash solution is added. Then the cells are incubated with 200 μl of biotase solution for 10 min, 37° C., the cells with the biotase are also transferred to the FACS tube and the cells are collected by centrifugation for 5 min. The cell pellet is suspended in 500 μl of serum-free culture medium, then 1.5 ml of cold 80% ethanol (ethanol/PBS-80/20, v/v, stored at −20° C.) is added, the FACS tubes sealed and stored at −20 degrees Celsius for 15 to 18 h. Thereafter, the cells are centrifuged for 5 minutes at 120 g, suspended after removal of the supernatant in 2 ml PBS and incubated at 37 degrees Celsius for 30 minutes. After re-centrifugation, the cells are suspended in 0.5 ml DAPI solution and incubated for 15 min at 20 degrees Celsius in the dark. Thereafter, the cells are stored dark for a maximum of four hours in an ice bath, followed by the FACS analysis.
For suspension cells (MEC-1 and lymphocytes/PBMC) and for adherent cells analyzed according to Protocol A, FACS analysis to determine subG1 cell cycle and vital cell fractions was done on a Becton Dickinson LSR Fortessa flow cytometer. The analysis by FACS including subG1 and vital cell analysis according to protocol B was performed with a Cytomics FC 500 MPL flow cytometer from Beckman Coulter.
Changes of the cell form during cell death by apoptosis are documented in the literature (Lizard et al. 1995; Taga et al. 2000; Vermes et al., 2000). The protocols for cell cultivation, treatment and preparation of the cells before flow cytometry is detailed in separate examples. Cell suspensions of cell lines A375, BxPC-3, MEC-1 or of primary lymphocytes (see separate example of lymphocyte preparation) are analyzed by flow cytometry. The data are further analyzed by using the program “Flowing Software 2”. The data of light scattering are drawn in a two-dimensional FSC/SSC plot. Since the position in the FSC/SSC plot of apoptotic cells changes relative to non-apoptotic cells (Vermes et al., 2000), a region (R-1) is drawn representing mainly non-apoptotic cells and excluding cells with both low FSC and low SSC values and excluding cells with high values of FSC and/or SSC (FIG. 1). The regions are individually selected for each cell type (A375, BxPC-3, MEC-1 and primary lymphocytes). The percentage of untreated non-apoptotic cells in the region R-1 relative to total cells is set to 100%, representing 100% vital cells. The fraction (%) of cells in R-1 relative to the total number of cells in case of cell treatment by certain peptides or by cytotoxic drugs results in cell vitality, below 100%, thereby indicating a loss of cell vitality by the treatment. […]
(In flow cytometry, cells or beads pass a laser one at a time.)

Experiment [2] relates to A375 melanoma cells. Briefly: subG1 cell cycle FACS apoptosis assay, A375 melanoma cells. The settings on record: about 24 hours, FIG. 3. It is filed as cell-based, human. Here is the method: as §1
The adherent cells (A375 and BxPC-3 cells and MDA-MB-231, respectively) are seeded 24 hours before induction in 6-well plates in culture medium. For this, the cells are washed with PBS, then incubated with trypsin/EDTA solution at 37 degrees Celsius and suspended in culture medium. The 6-well plates are loaded with 1×10^5 cells/cm^2 in culture medium and the cells incubated for 24 hours until induction with the peptides in the incubator. For induction, the peptides are diluted in fresh culture medium. As control solutions, culture medium without peptide (DMSO-containing) in culture medium or etoposide solution is added. The cells are washed with PBS. Thereafter the peptide solution in culture medium is added to the cells. After incubation in the incubator (37° C., 5% CO2) between 1.5 and 24 hours, the cell supernatant is transferred to 15 ml centrifuge tubes, the cells are washed with 0.75 ml PBS and then with 0.5 ml versene solution. Both washings are combined with the cell supernatant. The cells are then added with 0.5 ml of trypsin/EDTA solution and incubated at about 37° C. for at most 10 minutes until the cells detached. The cell suspension is combined with cell supernatant and washings and centrifuged at about 130 g for about 10 minutes. After removing the supernatant, the cells are suspended in 400 μl of cell culture medium (without serum) and mixed with 1.2 ml of 80% ethanol/20% PBS (v/v) and incubated for 1 to 7 days at −20° C. For analysis, the cells are centrifuged at 130 g for 10 min, suspended in 2 ml PBS, and centrifuged again for 5 min. The cells are suspended in 700 μl PI buffer and incubated for 10 min at 37° C. in the dark. Subsequently, the cells are stored dark for a maximum of four hours in an ice bath, then the FACS analysis is performed.
The proportion of cells which have died was determined by two methods, both rely on the analysis of cells by flow cytometry, often called FACS analysis. […]

For s-q-t-v-q-k-w-m-v-v-y-f-r [SEQID No 38], the “efficiency (decrease of cell vitality) in view of Peptide SEQ C1” value in the experiment on A375 melanoma cells [1] (200 μM) is “at least threefold”; with A375 melanoma cells [1] (500 μM) it was “at least tenfold”. Also, the “decrease of cell vitality, comparison in words” value in the experiment on A375 melanoma cells [1] was “clear improvement over peptides SEQID NO 27 and SEQID NO 39 at any concentration”; in the experiment on A375 melanoma cells [1] (listed as SEQID NO 38) it was “significantly greater decrease than the peptide of the prior art (Peptide SEQ C1)”. In addition, the “apoptosis efficiency (subG1), comparison in words” value in the experiment with A375 melanoma cells [2] (A375, Protocol A, 100, 200, 500 μM) is “clear improvement over peptide SEQID NO 27 at a concentration below 500 μM and over Peptide SEQID NO 39 at a concentration above 100 μM”. Further, the “apoptosis efficiency (subG1) in view of Peptide SEQ C1” value with A375 melanoma cells [2] (A375, Protocol A, any concentration (100, 200, 500 μM)) is given as “at least tenfold”.

The values above are taken from patent US20220160812A1, “A PHARMACEUTICALLY ACTIVE SUBSTANCE” (Cytopharma GmbH, priority 2019, published 2022).
